Measurements as given in patent publication US12201848B2, “Device and methods for use in removal of bio-film and treatment of halitosis” (priority 2016, dated 2025).
“Also recorded” adds a separate entry of the source.

How the values were obtained:
[1] = system: Porphyromonas Gingivalis and Prevotella Intermedia; assay: Lethal photosensitization of oral pathogens by methylene blue and red-filtered halogen light (colony count); type: cell-based; conditions: for Percent of Living Bacteria: mean of both species +/- SD
Method: Suitable stain dosages for providing lethal sensitization of oral pathogens are determined in vitro by the following procedure. An objective is to determine the minimum duration of light exposure and minimum agent dilution required to achieve at least a 50% reduction in bacteria counts. Experimental tests are performed on two common pathogens using a continuously working, high intensity, red filtered halogen lamp. Red light from the filtered halogen lamp is transmitted through a flexible light guide to radiate downwardly onto petri dishes containing samples of live bacteria of species Porphyromonas Gingivalis and Prevotella Intermedia using the protocols described below. Bacteria. Prevoltella Intermedia is isolated from patient sample material, identified in the laboratory using standard diagnostic test systems (Remel Inc., Lenexa, Kans., USA) and is maintained by twice-weekly subculture in thioglycollate medium (Becton Dickinson and Co, Sparks, Md., USA). P. gingivalis ATCC 33277 obtained from Remel Inc., is maintained by a twice-weekly subculture on CDC anaerobe blood agar (Becton Dickinson and Co, USA) and in thioglycollate medium (Becton Dickinson and Co, USA). Light Source. The source for light energy is a continuously working, high intensity halogen lamp having a built-in 250-Watt quartz halogen light source, model I-250 supplied by Medithon, New York, N.Y., USA. Such lights are customarily employed for ear, nose or throat procedures. The light is transmitted through a flexible light guide and filtered to maintain maximum energy output at wavelengths in the vicinity of about 650 nm using a broadband red filter (Edmund Optics Inc., Barrington, N.J., USA). The light output power density measured at 3 cm distance from the end of the light guide with filter is about 50 milliwatts/cm2. Photosensitizer. […] Lethal photosensitization of P. Intermedia. Petri dishes containing CDC anaerobe blood agar (Becton Dickinson and Co, USA) are inoculated with 0.5 ml of broth containing 5×10^5 CFU/ml and left closed at room temperature for about 10 minutes to let the broth penetrate the agar media. […] Only plates with concentrations of 0.01%, and 0.025% are used in the experiment with 20 min light exposure. Four plates are used for each experiment. […] The controls are covered to protect them from ambient light. […] A total of 108 subcultures is used for the experiment. Plates are incubated in anaerobic conditions in the jars using anaerobic pack kits (BBL GasPak Plus, Becton Dickinson and Co, Sparks, Md., USA) at 37° C. for 24 hours. Samples of the resulting culture growth are taken from each plate with sterile […] standard loop, dispensed in 1 ml of sterile NS and placed at the same media. Cultures are incubated at anaerobic conditions at 37° C. for another 24 hours, and after that the resulting colony count is performed on each plate. Lethal photosensitization of P. Gingivalis. Serial dilutions of the P. gingivalis culture are prepared from the initial culture preserved on plates using 1:L sterile standard loop (Becton Dickinson and Co, USA) and sterile NS. A Vitek calorimeter (Hach Company, Loveland, Colo., USA) is used to achieve a final concentration of about 5×10^3 CFU/ml from an initial 0.5 standard McFarland suspension of 10^8 CFU/ml. Plates containing CDC anaerobic blood agar (Becton Dickinson and Co, USA) are inoculated with the resulting suspension using sterile 10:L standard loops (Becton Dickinson and Co, USA). […] Plates are also incubated at 37° C. in the tightly closed jars supplied with anaerobic pack kits (BBL GasPak Plus, Becton Dickinson and Co, USA) for 24 hours, and the resulting colony count is performed on each plate.

P. gingivalis ATCC 33277 = assay: Lethal photosensitization of P. Gingivalis (colony count); type: cell-based
Method: Suitable stain dosages for providing lethal sensitization of oral pathogens are determined in vitro by the following procedure. An objective is to determine the minimum duration of light exposure and minimum agent dilution required to achieve at least a 50% reduction in bacteria counts. Experimental tests are performed on two common pathogens using a continuously working, high intensity, red filtered halogen lamp. Red light from the filtered halogen lamp is transmitted through a flexible light guide to radiate downwardly onto petri dishes containing samples of live bacteria of species Porphyromonas Gingivalis and Prevotella Intermedia using the protocols described below. Bacteria. Prevoltella Intermedia is isolated from patient sample material, identified in the laboratory using standard diagnostic test systems (Remel Inc., Lenexa, Kans., USA) and is maintained by twice-weekly subculture in thioglycollate medium (Becton Dickinson and Co, Sparks, Md., USA). P. gingivalis ATCC 33277 obtained from Remel Inc., is maintained by a twice-weekly subculture on CDC anaerobe blood agar (Becton Dickinson and Co, USA) and in thioglycollate medium (Becton Dickinson and Co, USA). Light Source. […] The light output power density measured at 3 cm distance from the end of the light guide with filter is about 50 milliwatts/cm2. […]

Question: How did the “reduction of bacteria without exposure to light” value ([1]; 0.05% methylene blue alone) turn out when `CN(C)c1ccc2nc3ccc(=[N+](C)C)cc-3sc2c1` [methylene blue] was run?
Answer: insignificant

Question: And the “difference between exposure for 10 and 20 minutes” value ([1]; either species, any concentration of methylene blue)?
Answer: No statistically significant difference

Question: What about the “killing of bacteria without halogen light” value ([1]; methylene blue 0.001% or 0.025%, without halogen light) of the same compound?
Answer: nor concentrations of methylene blue of 0.001% or 0.025%, without halogen light, appeared to be effective in killing bacteria

Question: What about the “bactericidal effect with red-filtered light” value ([1]; methylene blue 0.01% or higher, exposure less than 10 minutes, accumulated energy 30 J/cm2, both species) of the same compound?
Answer: bactericidal effect

Question: What about the “Percent of Living Bacteria” value ([1]; methylene blue 0.01%, exposure to red light 0) of the same compound?
Answer: 70 +/− 11%

Question: And the “Percent of Living Bacteria” value ([1]; methylene blue 0.01%, red light 1 min)?
Answer: 73 +/− 6%

Question: And the “Percent of Living Bacteria” value ([1]; methylene blue 0.01%, red light 5 min)?
Answer: 69 +/− 7%

Question: And the “Percent of Living Bacteria” value ([1]; methylene blue 0.01%, red light 10 min)?
Answer: 55 +/− 6%

Question: And the “Percent of Living Bacteria” value ([1]; methylene blue 0.01%, red light 20 min)?
Answer: 51 +/− 4%

Question: What about the “Percent of Living Bacteria” value ([1]; methylene blue 0.025%, exposure to red light 0) of the same compound?
Answer: 75 +/− 14%

Question: And the “reduction in bacteria counts” value ([1]; methylene blue 0.025%, light exposure 5 min)?
Answer: Significant reduction in bacteria counts

Question: And the “Percent of Living Bacteria” value ([1]; methylene blue 0.025%, red light 1 min)?
Answer: 67 +/− 4%

Question: What about the “Percent of Living Bacteria” value ([1]; methylene blue 0.025%, red light 5 min) of the same compound?
Answer: 47 +/− 6%

Question: What about the “Percent of Living Bacteria” value ([1]; methylene blue 0.025%, red light 10 min) of the same compound?
Answer: 48 +/− 8%

Question: And the “Percent of Living Bacteria” value ([1]; methylene blue 0.025%, red light 20 min)?
Answer: 49 +/− 5%

Question: And the “killing with duration of red light” value ([1]; methylene blue 0.025%, time intervals 5 and 10 min)?
Answer: statistically significant increased killing with duration

Question: What about the “reduction in bacteria counts” value ([1]; methylene blue 0.05% and higher, light exposure 1 min) of the same compound?
Answer: Significant reduction in bacteria counts

Question: And the “Percent of Living Bacteria” value ([1]; methylene blue 0.05%, exposure to red light 0)?
Answer: 68 +/− 12%

Question: What about the “Percent of Living Bacteria” value ([1]; methylene blue 0.05%, red light 1 min) of the same compound?
Answer: 53 +/− 10%

Question: And the “Percent of Living Bacteria” value ([1]; methylene blue 0.05%, red light 5 min)?
Answer: 32 +/− 7%

Question: What about the “Percent of Living Bacteria” value ([1]; methylene blue 0.05%, red light 10 min) of the same compound?
Answer: 32 +/− 9%

Question: And the “killing with duration of red light” value ([1]; methylene blue 0.05%, time intervals 1 min, 5 min and 10 min)?
Answer: statistically significant increased killing with duration

Question: And the bacterial count reduction ([1]; methylene blue 0.075% and 0.1%, light exposure 1 min, both cultures)?
Answer: statistically significant bacterial count reduction

Question: And the “bactericidal effect without light exposure” value ([1]; methylene blue 0.075% and 0.1%, no red light)?
Answer: significant bactericidal effect; also recorded: significantly bactericidal

Question: And the “Percent of Living Bacteria” value ([1]; methylene blue 0.075%, exposure to red light 0)?
Answer: 51 +/− 10%

Question: And the “Percent of Living Bacteria” value ([1]; methylene blue 0.075%, red light 1 min)?
Answer: 45 +/− 5%

Question: And the “Percent of Living Bacteria” value ([1]; methylene blue 0.075%, red light 5 min)?
Answer: 26 +/− 5%

Question: And the “Percent of Living Bacteria” value ([1]; methylene blue 0.075%, red light 10 min)?
Answer: 25 +/− 5%

Question: What about the “Percent of Living Bacteria” value ([1]; methylene blue 0.1%, exposure to red light 0) of the same compound?
Answer: 35 +/− 9%

Question: And the “Percent of Living Bacteria” value ([1]; methylene blue 0.1%, red light 1 min)?
Answer: 39 +/− 12%

Question: And the “Percent of Living Bacteria” value ([1]; methylene blue 0.1%, red light 5 min)?
Answer: 28 +/− 9%

Question: What about the “Percent of Living Bacteria” value ([1]; methylene blue 0.1%, red light 10 min) of the same compound?
Answer: 24 +/− 4%

Question: And the “bacterial killing without light exposure” value (P. gingivalis ATCC 33277; methylene blue 0.01%, no light, P. gingivalis culture)?
Answer: statistically significant bacterial killing

Question: What about the “bactericidal effect on P. gingivalis” value (P. gingivalis ATCC 33277; methylene blue 0.1%) of the same compound?
Answer: bactericidal effect
